Measurements as given in the NIST ThermoML archive (doi:10.1016/j.jct.2014.07.003).

Test: mn = molality of the nth substance listed, in mol/kg
Settings: 99 kPa, Liquid, Alternating current cell with electrodes

CCCCCCCCCCCC[N+](C)(C)C.[Br-] [dodecyltrimethylammonium bromide] + O
electrical conductivity [S/m]
Settings | 288.15 K | 293.15 K | 298.15 K | 303.15 K | 308.15 K | 313.15 K | 318.15 K
m1 = 0.0015 | 0.0137 | 0.014 | 0.0143 | 0.0144 | 0.0153 | 0.0169 | 0.018
m1 = 0.003 | 0.0265 | 0.027 | 0.0273 | 0.0278 | 0.0286 | 0.032 | 0.034
m1 = 0.0045 | 0.039 | 0.0397 | 0.0412 | 0.0413 | 0.042 | 0.0469 | 0.049
m1 = 0.0059 | 0.05 | 0.052 | 0.053 | 0.0545 | 0.0547 | 0.0605 | 0.0645
m1 = 0.0073 | 0.061 | 0.0635 | 0.0659 | 0.067 | 0.0675 | 0.0749 | 0.0771
m1 = 0.0087 | 0.0725 | 0.0748 | 0.0769 | 0.079 | 0.0795 | 0.088 | 0.0905
m1 = 0.0101 | 0.0837 | 0.086 | 0.089 | 0.0895 | 0.0903 | 0.101 | 0.103
m1 = 0.0116 | 0.095 | 0.0975 | 0.1 | 0.101 | 0.102 | 0.114 | 0.116
m1 = 0.013 | 0.106 | 0.108 | 0.11 | 0.112 | 0.113 | 0.126 | 0.128
m1 = 0.0144 | 0.115 | 0.118 | 0.12 | 0.122 | 0.123 | 0.135 | 0.138
m1 = 0.0157 | 0.124 | 0.126 | 0.128 | 0.129 | 0.131 | 0.142 | 0.145
m1 = 0.017 | 0.129 | 0.131 | 0.132 | 0.134 | 0.136 | 0.146 | 0.15
m1 = 0.0184 | 0.132 | 0.133 | 0.134 | 0.137 | 0.14 | 0.15 | 0.154
m1 = 0.0197 | 0.135 | 0.136 | 0.136 | 0.14 | 0.142 | 0.154 | 0.158
m1 = 0.021 | 0.137 | 0.138 | 0.139 | 0.143 | 0.145 | 0.157 | 0.161
m1 = 0.0223 | 0.139 | 0.14 | 0.142 | 0.146 | 0.148 | 0.159 | 0.163
m1 = 0.0236 | 0.141 | 0.142 | 0.143 | 0.149 | 0.152 | 0.162 | 0.167
m1 = 0.0249 | 0.143 | 0.144 | 0.146 | 0.151 | 0.154 | 0.164 | 0.17
m1 = 0.0274 | 0.146 | 0.149 | 0.15 | 0.155 | 0.158 | 0.168 | 0.174
m1 = 0.0286 | 0.148 | 0.151 | 0.153 | 0.157 | 0.16 | 0.17 | 0.177
m1 = 0.0298 | 0.15 | 0.154 | 0.156 | 0.159 | 0.162 | 0.172 | 0.179
